This note sets out measurements from patent US12527788B2, “Defining RNA-small molecule affinity landscapes enables design of a small molecule inhibitor of an oncogenic non-coding RNA” (University of Florida Research Foundation, Incorporated, priority 2017, dated 2026).

What is called Kd is the constant that tells how readily two partners part at equilibrium.

Test [1] concerns DU145 prostate cancer cells. As to the kind of experiment: Apoptosis by Annexin V/PI staining. The test is classed as cell-based. The conditions noted are these: 10 μM and 20 μM. The method, then:
A, Effect of 4 on STK4 protein expression, a direct target of miR-18a. B, Ability of 4 (10 μM and 20 μM) and a miR-18a antagomir (50 nM) to trigger apoptosis. *, p<0.05 and **, p<0.01, as determined by a two-tailed Student t-test.
Although the most common route to modulate protein expression is to inhibit them directly, here we show it is possible to increase protein expression by targeting non-coding RNAs that repress their production.

The next test has as its system miR-92a. Description: RT-qPCR of mature miRNA levels in DU145 cells. The test is classed as cell-based, human. How it is done:
In particular, the mature levels of each miRNA in the cluster were studied by RT-qPCR. In agreement with our in vitro Dicer processing studies (FIG. 8A and Figures S-58-S-62), 4 decreases the amount of mature miR-17, -18a, and -20a at low micromolar concentrations with an IC50 of ˜10 µM, but has no effect on miR-19a, -19b, and -92a (FIG. 8B).
Cell Culture: DU145 cells were cultured in growth medium (Roswell Park Memorial Institute medium (RPMI) supplemented with 10% fetal bovine serum (FBS)) at 37° C. and 5% CO2
Total RNA was extracted from cells using a Quick-RNA Miniprep Kit (Zymo Research) per the manufacturer's protocol. Approximately 200 ng of total RNA was used in reverse transcription (RT) reactions, which were completed using a miScript II RT kit (Qiagen) per the manufacturer's protocol. RT-qPCR was performed on a 7900HT Fast Real Time PCR System (Applied Biosystem) using power SYBR Green Master Mix (Applied Biosystems). All primer sets were purchased from Integrated DNA Technologies, Inc. (IDT) or Eurofins (Table S1). The expression levels of mature miRNAs were normalized to U6 small nuclear RNA or 18s rRNA.
For orientation: Real-time PCR tracks product formation cycle by cycle.

In a further test the test system is pre-miR-18a. Description: In vitro Dicer inhibition assay. Particulars: low micromolar concentrations. It counts as biochemical, human. The method, then:
(§1) Initial studies were completed in vitro to determine if compound 4 (Targapremir-18a) inhibits Dicer processing of each miRNA separately in the miR-17-92 cluster using radioactively labeled RNA (FIG. 8A). […] Thus, inhibition of Dicer processing by 4 is selective for miR-17, -18a, and -20a and non-selective inhibition of Dicer processing is not observed.
(§2) Dicer Inhibition Assay: The template used for pre-miR-18a (5′-[…] GCTCCTTCTGGCA) (SEQ ID NO: 41) was PCR-amplified in 1×PCR Buffer, 2 μM forward primer (5′-[…]-AAGGTGCATCTAGTGCAGA) (SEQ ID NO: 42), 2 μM reverse primer (5′-[…]) (SEQ ID NO: 43), 4.25 mM MgCl2, 330 μM dNTPs, and 2 μL of Taq DNA polymerase in a 50 μL reaction. Cycling conditions were 95° C. for 30 s, 55° C. for 30 s, and 72° C. for 60 s. […] The samples was then supplemented with 1 mM ATP and 2.5 mM MgCl2. Serially diluted concentrations of 4 were added and the samples were incubated at room temperature for 15 min. Next, 0.005 units/μL of recombinant human Dicer (Genlantis) were added followed by incubation at 37° C. overnight. Reactions were stopped by adding the manufacturer's supplied stop solution.
(§3) A T1 ladder (cleaves G residues) was generated by heating the RNA in 1×RNA Sequencing Buffer (20 mM sodium citrate, pH 5.0, 1 mM EDTA, and 7 M urea) at 55° C. for 10 min followed by slowly cooling to room temperature. RNase T1 was then added to a final concentration of 3, 0.3, 0.03 units/μL and the solution was incubated at room temperature for 20 min. An RNA hydrolysis ladder was generated by incubating RNA in 1×RNA hydrolysis buffer (50 mM NaHCO3, pH 9.4, and 1 mM EDTA) at 95° C. for 5 min. In all cases, cleavage products were separated on a denaturing 15% polyacrylamide gel and imaged using a Bio-Rad PMI phosphorimager.

The test system of a further test is pre-miR-19b. Description: In vitro Dicer inhibition assay. The test is classed as biochemical, human. How it is done: as §1, §2, §3
The next test relates to pre-miR-17. Description: In vitro Dicer inhibition assay. Particulars: low micromolar concentrations. It counts as biochemical, human. The method, then: as §1, §2, §3
The test system of a further test is pre-miR-19a. Description: In vitro Dicer inhibition assay. The test is classed as biochemical, human. How it is done:
as §1, §2, §3

The subject of the next test is pre-miR-20. As to the kind of experiment: In vitro Dicer inhibition assay. The test is classed as biochemical, human. Particulars: low micromolar concentrations. The method, then:
as §1, §2, §3

The target in test [2] is RNA1 (5′G_U/3′CUA U bulge of Dicer sites in miR-17, -18a and -20a). As to the kind of experiment: Fluorescence-based binding affinity measurement. Further details: species or system human. How it is done:
(§4) FIG. 7: Secondary structures of the nucleic acids to which the binding of small molecule 4 was assessed. […] RNA1 contains the U bulge present in the Dicer processing site common to miR-17, -18a and -20a. RNA2 contains the A bulge that is present in miR-18a. RNA3 contains the G bulge present in miR-17 and miR-20a. Binding affinities (Kd's) are indicated in parentheses and are reported in micromolar.
(§5) Mutation of the U bulge to an AU pair (RNAC) eliminates binding (Kd>100 μM).
(§6) Binding Affinity Measurements: An in solution, fluorescence-based assay was used to determine binding affinities by monitoring the change in fluorescence intensity of 1-FL (or 2-FL/3-FL/4-FL) as a function of RNA concentration as described previously.^18 Briefly, the RNA of interest was folded in 1× Folding Buffer (8 mM Na2HPO4, pH 7.0, 185 mM NaCl and 1 mM EDTA) by heating at 60° C. for 5 min followed by slowly cooling to room temperature on the bench top. Then, the FL-conjugated compound was added into the RNA solution to a final concentration of 100 nM. Serial dilutions were then completed using 1× Folding Buffer supplemented with 100 nM FL-conjugated compound. The solutions were incubated at room temperature for 30 min and then transferred to a well of a black 384-well plate. Fluorescence intensity was measured using a Bio-Tek FL×800 plate reader with an excitation wavelength of 485/20 nm and an emission wavelength of 528/20 nm. The change in fluorescence intensity as a function of the concentration of RNA was fit to equation 3:^9 I=I0+0.5 Δε{([FL]0+[RNA]0 +Kd)−(([FL]0+[RNA]0+Kd)^2−4[FL]0[RNA]0)^1/2} (3) where I is the observed fluorescence intensity; I0 is the fluorescence intensity in the absence of RNA; Δε is the difference between the fluorescence intensity in the absence of RNA and in the presence of infinite RNA concentration; [FL]0 is the concentration of compound; [RNA]0 is the concentration of the selected RNA; and Kd is the dissociation constant.

For test [3], the target named is RNA2 (A bulge of the miR-18a precursor). Description: Fluorescence-based binding affinity measurement. More on the design: species or system human. The method, then:
as §4, §5, §6

“Also recorded” adds a separate entry of the source.

Regarding `CN1CCN(c2ccc(-c3ccc4nc(-c5cc(C(C)(C)C)c(OCCCC(=O)NCCCN=[N+]=[N-])c(C(C)(C)C)c5)[nH]c4c3)cc2)CC1` [Compound 4], the Apoptosis result in [1] is “triggers apoptosis”. In the test with miR-92a, the “Effect on mature miRNA level” value is reported as “no effect”. Also, the “Inhibition of Dicer processing” value was “inhibits in vitro Dicer processing; also recorded: inhibited Dicer processing” with pre-miR-18a, “inhibited Dicer processing” in the test with pre-miR-17 and “inhibited Dicer processing” with pre-miR-20. The “Effect on Dicer processing” value with pre-miR-19b and with pre-miR-19a was “no effect” in each case. In addition, the dissociation constant Kd turned out to be 30 ± 2 µM in test [2] and 32 ± 5 µM in test [3].
